Source: US8877748B2, “Heterocyclic fused anthraquinone derivatives, manufacturing method and pharmaceutical composition using thereof” (National Defense Medical Center, priority 2012, dated 2014)
Read-outs that look alike come from different tables or passages of the source.

What was measured:
Format in all cases: cell-based, human
[1] = test system: PC-3 prostate cancer cell line; assay: SRB assay cell viability, PC-3 prostate cancer cell line; conditions: PC-3 prostate cancer cell line, Table II prints no unit, μM printed, read-out: SRB assay: 50% inhibition of cancer cell proliferation of sample concentration (IC50) of PC-3 prostate cancer cell line
CCRF-CEM = assay: NCI screening platform one-dose single concentration screening, leukemia CCRF-CEM; conditions: CCRF-CEM
HL-60, TB = assay: NCI one-dose screening, leukemia HL-60, TB; conditions: HL-60(TB)
MOLT-4 = assay: NCI one-dose screening, leukemia MOLT-4; conditions: MOLT-4, 10 μM
SR = assay: NCI one-dose screening, leukemia SR; conditions: SR
PRMI-8226 cell line = assay: NCI one-dose screening, leukemia PRMI-8226; conditions: RPMI-8226, 10 μM
K562cell line = assay: NCI one-dose screening, leukemia K562; conditions: K562, 10 μM
HOP-62 = assay: NCI one-dose screening, non-small cell lung cancer HOP-62; conditions: HOP-62, 10 μM
NCI-H226 = assay: NCI one-dose screening, non-small cell lung cancer NCI-H226; conditions: NCI-H226, 10 μM
NCI-H23 = assay: NCI one-dose screening, non-small cell lung cancer NCI-H23; conditions: NCI-H23, 10 μM
NCI-H322M = assay: NCI one-dose screening, non-small cell lung cancer NCI-H322M
NCI-H460 = assay: NCI one-dose screening, non-small cell lung cancer NCI-H460; conditions: NCI-H460, 10 μM
NCI-H522 = assay: NCI one-dose screening, non-small cell lung cancer NCI-H522; conditions: NCI-H522, 10 μM
HCT-116 = assay: NCI one-dose screening, colon cancer HCT-116; conditions: HCT-116, 10 μM
KM12 = assay: NCI one-dose screening, colon cancer KM12; conditions: KM12, 10 μM
HT29 = assay: NCI one-dose screening, colon cancer HT29; conditions: HT29, 10 μM
SF-295 = assay: NCI one-dose screening, CNS cancer SF-295; conditions: SF-295, 10 μM
SNB-19 = assay: NCI one-dose screening, CNS cancer SNB-19; conditions: SNB-19, 10 μM
SNB-75 = assay: NCI one-dose screening, CNS cancer SNB-75; conditions: SNB-75, 10 μM
U251 = assay: NCI one-dose screening, CNS cancer U251; conditions: U251, 10 μM
LOX IMVI = assay: NCI one-dose screening, melanoma LOX IMVI; conditions: LOX IMVI
M14 = assay: NCI one-dose screening, melanoma M14; conditions: M14, 10 μM
UACC-257 = assay: NCI one-dose screening, melanoma UACC-257; conditions: UACC-257, 10 μM
SK-MEL-2 = assay: NCI one-dose screening, melanoma SK-MEL-2; conditions: SK-MEL-2, 10 μM
SK-MEL-28 = assay: NCI one-dose screening, melanoma SK-MEL-28; conditions: SK-MEL-28, 10 μM
SK-MEL-5 = assay: NCI one-dose screening, melanoma SK-MEL-5; conditions: SK-MEL-5, 10 μM
IGROV1 = assay: NCI one-dose screening, ovarian cancer IGROV1; conditions: IGROV1, 10 μM
OVCAR-3 = assay: NCI one-dose screening, ovarian cancer OVCAR-3; conditions: OVCAR-3, 10 μM
OVCAR-5 = assay: NCI one-dose screening, ovarian cancer OVCAR-5; conditions: OVCAR-5, 10 μM
OVCAR-8 = assay: NCI one-dose screening, ovarian cancer OVCAR-8; conditions: OVCAR-8, 10 μM
CAKI-1 = assay: NCI one-dose screening, renal cancer CAKI-1; conditions: CAKI-1, 10 μM
ACHN = assay: NCI one-dose screening, renal cancer ACHN; conditions: ACHN
SN12C = assay: NCI one-dose screening, renal cancer SN12C; conditions: SN12C
TK-10 = assay: NCI one-dose screening, renal cancer TK-10; conditions: TK-10, 10 μM
UO-31 = assay: NCI one-dose screening, renal cancer UO-31; conditions: UO-31, 10 μM
RXF, 393 = assay: NCI one-dose screening, renal cancer RXF, 393; conditions: RXF 393, 10 μM
DU145 = assay: NCI one-dose screening, prostate cancer DU145; conditions: DU145, 10 μM
MCF7 = assay: NCI one-dose screening, breast cancer MCF7; conditions: MCF7, 10 μM
HS 578-T = assay: NCI one-dose screening, breast cancer HS 578-T
MDA-MB-231/ATCC = assay: NCI one-dose screening, breast cancer MDA-MB-231/ATCC; conditions: MDA-MB-231/ATCC
MDA-MB-468 = assay: NCI one-dose screening, breast cancer MDA-MB-468; conditions: MDA-MB-468, 10 μM
NCl/ADR-RES = assay: NCI one-dose screening, breast cancer NCl/ADR-RES; conditions: Ovarian cancer, NCI/ADR-RES
MDA, -MB-435 = assay: NCI one-dose screening, breast cancer MDA, -MB-435; conditions: Melanoma, MDA-MB-435, 10 μM
[2] = Non-small cell lung cancer, NCI-H322M, 10 μM

Compound: O=C1c2ccccc2C(=O)c2c1cc(N1CCCC1)c1nsnc21 [C7, 4-(pyrrolidine-1-yl)anthra-[2,1-c][1,2,5] thiadiazol-6,11-dione]
- IC50 ([1]; Homo sapiens): > 15 µM
- Growth Percent (10 μM) (CCRF-CEM): 86.62%
- Growth Percent (10 μM) (HL-60, TB): 104.58%
- Growth Percent (10 μM) (MOLT-4): 92.84%
- Growth Percent (10 μM) (SR): 84.23%
- Growth Percent (10 μM) (PRMI-8226 cell line): 76.16%
- Growth Percent (10 μM) (K562cell line): 75.50%
- Growth Percent (10 μM) (HOP-62): 79.16%
- Growth Percent (10 μM) (NCI-H226): 78.66%
- Growth Percent (10 μM) (NCI-H23): 59.74%
- Growth Percent (10 μM) (NCI-H322M; [2]): 82.34%
- Growth Percent (10 μM) (NCI-H460): 89.11%
- Growth Percent (10 μM) (NCI-H522): 83.41%
- Growth Percent (10 μM) (HCT-116): 78.67%
- Growth Percent (10 μM) (KM12): 95.18%
- Growth Percent (10 μM) (HT29): 98.60%
- Growth Percent (10 μM) (SF-295): 87.02%
- Growth Percent (10 μM) (SNB-19): 90.45%
- Growth Percent (10 μM) (SNB-75): 94.52%
- Growth Percent (10 μM) (U251): 80.49%
- Growth Percent (10 μM) (LOX IMVI): 69.55%
- Growth Percent (10 μM) (M14): 94.61%
- Growth Percent (10 μM) (UACC-257): 84.14%
- Growth Percent (10 μM) (SK-MEL-2): 115.43%
- Growth Percent (10 μM) (SK-MEL-28): 99.46%
- Growth Percent (10 μM) (SK-MEL-5): 31.12%
- Growth Percent (10 μM) (IGROV1): 75.83%
- Growth Percent (10 μM) (OVCAR-3): 86.97%
- Growth Percent (10 μM) (OVCAR-5): 111.75%
- Growth Percent (10 μM) (OVCAR-8): 82.12%
- Growth Percent (10 μM) (CAKI-1): 70.65%
- Growth Percent (10 μM) (ACHN): 82.97%
- Growth Percent (10 μM) (SN12C): 89.82%
- Growth Percent (10 μM) (TK-10): 141.01%
- Growth Percent (10 μM) (UO-31): 41.64%
- Growth Percent (10 μM) (RXF, 393): 97.02%
- Growth Percent (10 μM) (DU145): 105.08%
- Growth Percent (10 μM) (MCF7): 59.71%
- Growth Percent (10 μM) (HS 578-T; Breast cancer, HS 578T, 10 μM): 101.62%
- Growth Percent (10 μM) (MDA-MB-231/ATCC): 95.23%
- Growth Percent (10 μM) (MDA-MB-468): 84.32%
- Growth Percent (10 μM) (NCl/ADR-RES): 86.36%
- Growth Percent (10 μM) (MDA, -MB-435): 105.87%

Compound: CN(C)CCNc1cc2c(c3nsnc13)C(=O)c1ccccc1C2=O [C8]
- IC50 [1]: 0.4 µM
- Growth Percent (10 μM) (CCRF-CEM): −12.55%
- Growth Percent (10 μM) (HL-60, TB): −10.38%
- Growth Percent (10 μM) (MOLT-4): −41.28%
- Growth Percent (10 μM) (SR): −49.98%
- Growth Percent (10 μM) (PRMI-8226 cell line): −29.81%
- Growth Percent (10 μM) (K562cell line): −24.44%
- Growth Percent (10 μM) (HOP-62): −67.97%
- Growth Percent (10 μM) (NCI-H226): 69.78%
- Growth Percent (10 μM) (NCI-H23): −43.43%
- Growth Percent (10 μM) (NCI-H322M): −56.32%
- Growth Percent (10 μM) (NCI-H460): −38.31%
- Growth Percent (10 μM) (NCI-H522): −91.81%
- Growth Percent (10 μM) (HCT-116): −2.07%
- Growth Percent (10 μM) (KM12): −21.66%
- Growth Percent (10 μM) (HT29): −45.50%
- Growth Percent (10 μM) (SF-295): −55.73%
- Growth Percent (10 μM) (SNB-19): −77.31%
- Growth Percent (10 μM) (SNB-75): −73.34%
- Growth Percent (10 μM) (U251): −55.42%
- Growth Percent (10 μM) (LOX IMVI): −90.91%
- Growth Percent (10 μM) (M14): −96.08%
- Growth Percent (10 μM) (UACC-257): −88.80%
- Growth Percent (10 μM) (SK-MEL-2): −66.52%
- Growth Percent (10 μM) (SK-MEL-28): −50.60%
- Growth Percent (10 μM) (SK-MEL-5): −98.79%
- Growth Percent (10 μM) (IGROV1): −28.40%
- Growth Percent (10 μM) (OVCAR-3): −38.62%
- Growth Percent (10 μM) (OVCAR-5): −76.97%
- Growth Percent (10 μM) (OVCAR-8): −28.91%
- Growth Percent (10 μM) (CAKI-1): 6.88%
- Growth Percent (10 μM) (ACHN): −22.86%
- Growth Percent (10 μM) (SN12C): −95.78%
- Growth Percent (10 μM) (TK-10): −35.59%
- Growth Percent (10 μM) (UO-31): −28.47%
- Growth Percent (10 μM) (RXF, 393): −59.58%
- Growth Percent (10 μM) (DU145): −95.45%
- Growth Percent (10 μM) (MCF7): −49.41%
- Growth Percent (10 μM) (HS 578-T): 4.32%
- Growth Percent (10 μM) (MDA-MB-231/ATCC): −2.96%
- Growth Percent (10 μM) (MDA-MB-468): −62.81%
- Growth Percent (10 μM) (NCl/ADR-RES): −23.20%
- Growth Percent (10 μM) (MDA, -MB-435): −58.82%

Compound: CC(C)Sc1cc2c(c3nsnc13)C(=O)c1ccccc1C2=O [C18, 4-(isopropylthio)anthra[2,1-c][1,2,5] thiadiazol-6,11-dione]
- IC50 ([1]; Homo sapiens): 1.15 µM
- Growth Percent (10 μM) (CCRF-CEM): −45.05%
- Growth Percent (10 μM) (HL-60, TB): −41.24%
- Growth Percent (10 μM) (MOLT-4): −54.56%
- Growth Percent (10 μM) (SR): −47.97%
- Growth Percent (10 μM) (PRMI-8226 cell line): −38.03%
- Growth Percent (10 μM) (K562cell line): −26.17%
- Growth Percent (10 μM) (HOP-62): 13.18%
- Growth Percent (10 μM) (NCI-H226): 10.21%
- Growth Percent (10 μM) (NCI-H23): −42.19%
- Growth Percent (10 μM) (NCI-H322M; [2]): −0.80%
- Growth Percent (10 μM) (NCI-H460): 4.92%
- Growth Percent (10 μM) (NCI-H522): −59.54%
- Growth Percent (10 μM) (HCT-116): −36.70%
- Growth Percent (10 μM) (KM12): 19.33%
- Growth Percent (10 μM) (HT29): 48.08%
- Growth Percent (10 μM) (SF-295): −16.57%
- Growth Percent (10 μM) (SNB-19): 21.85%
- Growth Percent (10 μM) (SNB-75): 9.12%
- Growth Percent (10 μM) (U251): −23.10%
- Growth Percent (10 μM) (LOX IMVI): −21.59%
- Growth Percent (10 μM) (M14): −31.54%
- Growth Percent (10 μM) (UACC-257): −91.69%
- Growth Percent (10 μM) (SK-MEL-2): −55.62%
- Growth Percent (10 μM) (SK-MEL-28): −8.32%
- Growth Percent (10 μM) (SK-MEL-5): −99.20%
- Growth Percent (10 μM) (IGROV1): −32.91%
- Growth Percent (10 μM) (OVCAR-3): −60.32%
- Growth Percent (10 μM) (OVCAR-5): −27.85%
- Growth Percent (10 μM) (OVCAR-8): −22.64%
- Growth Percent (10 μM) (CAKI-1): −5.68%
- Growth Percent (10 μM) (ACHN): 0.80%
- Growth Percent (10 μM) (SN12C): −28.62%
- Growth Percent (10 μM) (TK-10): 30.33%
- Growth Percent (10 μM) (UO-31): −28.43%
- Growth Percent (10 μM) (RXF, 393): 13.64%
- Growth Percent (10 μM) (DU145): 6.66%
- Growth Percent (10 μM) (MCF7): −68.82%
- Growth Percent (10 μM) (HS 578-T; Breast cancer, HS 578T, 10 μM): −9.16%
- Growth Percent (10 μM) (MDA-MB-231/ATCC): −35.94%
- Growth Percent (10 μM) (MDA-MB-468): −78.76%
- Growth Percent (10 μM) (NCl/ADR-RES): −24.93%
- Growth Percent (10 μM) (MDA, -MB-435): −79.28%
